Laboratory results taken from ChEMBL document CHEMBL1201862, “PubChem BioAssay data set” (2004).
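How tested: cells in 96-well plates exposed to compound for 48 hours at five concentrations. The concentration for 50% growth inhibition is given as GI50.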 The source made the active and inactive calls. No stated cut-off is given here; in the data, active = GI50 up to about 1.1 µM and inactive = higher.

Key:
Experiment in all cases: DTP human tumour cell line panel, 48 h
BT-549 = tested on: BT-549
CAKI-1 = tested on: CAKI-1
COLO 205 = tested on: COLO 205
DLD-1 = tested on: DLD-1
EKVX = tested on: EKVX
HCC 2998 = tested on: HCC 2998
HCT-15 = tested on: HCT-15
HOP-92 = tested on: HOP-92
K562 = tested on: K562
KM12 = tested on: KM12
M14 = tested on: M14
MDA-N = tested on: MDA-N
NCI-H23 = tested on: NCI-H23
OVCAR-3 = tested on: OVCAR-3
SF-539 = tested on: SF-539
SW-620 = tested on: SW-620
TK-10 = tested on: TK-10
U-251 = tested on: U-251
SR = tested on: SR

SMILES | GI50 (BT-549) | GI50 (CAKI-1) | GI50 (COLO 205) | GI50 (DLD-1) | GI50 (EKVX) | GI50 (HCC 2998) | GI50 (HCT-15) | GI50 (HOP-92) | GI50 (K562) | GI50 (KM12) | GI50 (M14) | GI50 (MDA-N) | GI50 (NCI-H23) | GI50 (OVCAR-3) | GI50 (SF-539) | GI50 (SW-620) | GI50 (TK-10) | GI50 (U-251) | GI50 (SR)
NC(CSC(c1ccccc1)(c1ccccc1)c1ccccc1)C(=O)O (stereo unspecified) | 0.975 µM (active) | 4.41 µM (inactive) | 0.665 µM (active) | 0.7 µM (active) | 1.19 µM (inactive) | 0.716 µM (active) | 0.925 µM | 7.31 µM (inactive) | 0.509 µM (active) | 0.962 µM (active) | 0.538 µM (active) | 1.08 µM (active) | 2.29 µM (inactive) | 1.7 µM (inactive) | 0.396 µM (active) | 0.741 µM (active) | 19.9 µM (inactive) | 0.69 µM (active) | –
Nc1nc[n+](Cc2ccccc2)c2ncn(Cc3ccccc3)c12 | – | 54.3 µM (inactive) | 26.7 µM (inactive) | 80.2 µM (inactive) | > 100 µM (inactive) | 15.5 µM (inactive) | > 100 µM | 19.2 µM (inactive) | 37.7 µM (inactive) | 68.9 µM (inactive) | 23.7 µM (inactive) | – | 97.7 µM (inactive) | 38.6 µM (inactive) | > 100 µM (inactive) | > 100 µM (inactive) | 28.4 µM (inactive) | 45.7 µM (inactive) | 35.3 µM (inactive)
O=C(N/N=C(/c1nc2ccc([N+](=O)[O-])cc2[nH]c1=O)C(O)c1ccc([N+](=O)[O-])cc1)c1ccncc1 (stereo unspecified) | – | 42 µM (inactive) | > 100 µM (inactive) | > 100 µM (inactive) | > 100 µM (inactive) | 41.6 µM (inactive) | 23.1 µM | > 100 µM (inactive) | 23.1 µM (inactive) | 59 µM (inactive) | 45.9 µM (inactive) | – | > 100 µM (inactive) | – | 75.5 µM (inactive) | > 100 µM (inactive) | > 100 µM (inactive) | > 100 µM (inactive) | > 100 µM (inactive)
COC(=O)/C(=N\N)C(C(=O)C(=O)Nc1nnc(S)[nH]1)c1nc2ccc([N+](=O)[O-])cc2nc1O (stereo unspecified) | – | > 100 µM (inactive) | > 100 µM (inactive) | > 100 µM (inactive) | > 100 µM (inactive) | > 100 µM (inactive) | > 100 µM | > 100 µM (inactive) | > 100 µM (inactive) | > 100 µM (inactive) | > 100 µM (inactive) | – | > 100 µM (inactive) | > 100 µM (inactive) | > 100 µM (inactive) | > 100 µM (inactive) | > 100 µM (inactive) | > 100 µM (inactive) | > 100 µM (inactive)
CO[C@@H]1C=C[C@@]23c4cc5c(cc4C(=O)O[C@H]2CN(C)[C@H]3C1)OCO5 | – | – | > 100 µM (inactive) | > 100 µM (inactive) | > 100 µM (inactive) | > 100 µM (inactive) | – | > 100 µM (inactive) | > 100 µM (inactive) | > 100 µM (inactive) | > 100 µM (inactive) | – | > 100 µM (inactive) | > 100 µM (inactive) | > 100 µM (inactive) | > 100 µM (inactive) | > 100 µM (inactive) | > 100 µM (inactive) | > 100 µM (inactive)
O=C1OC2C=CC1C1(CCOC1=O)C2 (stereo unspecified) | – | > 100 µM (inactive) | > 100 µM (inactive) | > 100 µM (inactive) | > 100 µM (inactive) | > 100 µM (inactive) | > 100 µM | > 100 µM (inactive) | > 100 µM (inactive) | > 100 µM (inactive) | > 100 µM (inactive) | – | > 100 µM (inactive) | > 100 µM (inactive) | > 100 µM (inactive) | > 100 µM (inactive) | > 100 µM (inactive) | > 100 µM (inactive) | > 100 µM (inactive)
COc1ccccc1OCC(COC(=O)Nc1ccc(C)cc1)OC(=O)Nc1ccc(C)cc1 (stereo unspecified) | – | 13.1 µM (inactive) | 18.2 µM (inactive) | 16 µM (inactive) | 25 µM (inactive) | 20.6 µM (inactive) | 15.8 µM | 7.59 µM (inactive) | 18.5 µM (inactive) | 20.6 µM (inactive) | 19.2 µM (inactive) | – | 23.2 µM (inactive) | 17.3 µM (inactive) | 19.1 µM (inactive) | 14.9 µM (inactive) | 18.4 µM (inactive) | 13.8 µM (inactive) | 22.4 µM (inactive)
O=C1N=C2Sc3ccc4ccccc4c3N2C1=O | – | 24.1 µM (inactive) | 29.6 µM (inactive) | 31.1 µM (inactive) | 16.1 µM (inactive) | 27 µM (inactive) | 24.2 µM | 15 µM (inactive) | 33 µM (inactive) | 32.7 µM (inactive) | 26.1 µM (inactive) | – | 22.5 µM (inactive) | 18 µM (inactive) | 18.8 µM (inactive) | 21.4 µM (inactive) | 34.4 µM (inactive) | 20.5 µM (inactive) | > 100 µM (inactive)
CCOC(=O)C1C(=O)c2cccc(OC)c2C2COC(=O)N12 (stereo unspecified) | – | – | > 100 µM (inactive) | > 100 µM (inactive) | > 100 µM (inactive) | > 100 µM (inactive) | > 100 µM | > 100 µM (inactive) | > 100 µM (inactive) | > 100 µM (inactive) | > 100 µM (inactive) | – | > 100 µM (inactive) | > 100 µM (inactive) | > 100 µM (inactive) | > 100 µM (inactive) | > 100 µM (inactive) | > 100 µM (inactive) | > 100 µM (inactive)
c1ccc(SC(CCCCC(Sc2ccccc2)Sc2ccccc2)Sc2ccccc2)cc1 | – | > 100 µM (inactive) | > 100 µM (inactive) | > 100 µM (inactive) | > 100 µM (inactive) | > 100 µM (inactive) | > 100 µM | > 100 µM (inactive) | > 100 µM (inactive) | > 100 µM (inactive) | > 100 µM (inactive) | – | > 100 µM (inactive) | > 100 µM (inactive) | > 100 µM (inactive) | > 100 µM (inactive) | > 100 µM (inactive) | > 100 µM (inactive) | > 100 µM (inactive)
O=c1[nH]nc(-c2ccccc2)c(-c2ccccc2)c1-n1nc(-c2ccccc2)c2ccccc2c1=O | – | > 100 µM (inactive) | 34.6 µM (inactive) | 76.7 µM (inactive) | > 100 µM (inactive) | > 100 µM (inactive) | 78 µM | 75.5 µM (inactive) | 27.9 µM (inactive) | 65.8 µM (inactive) | > 100 µM (inactive) | – | > 100 µM (inactive) | 51.5 µM (inactive) | > 100 µM (inactive) | 99.5 µM (inactive) | > 100 µM (inactive) | 50.8 µM (inactive) | 52.1 µM (inactive)
CCCCCCCCCCCCCC(=O)OCC1OC(OC)C(NC(=O)N(CCCl)N=O)C(O)C1O (stereo unspecified) | – | > 100 µM (inactive) | 21.9 µM (inactive) | 20.8 µM (inactive) | – | 28.1 µM (inactive) | 34.8 µM | – | 12.5 µM (inactive) | 24.4 µM (inactive) | 17.2 µM (inactive) | – | 12.9 µM (inactive) | 24.9 µM (inactive) | 3.56 µM (inactive) | 8.79 µM (inactive) | 37.9 µM (inactive) | 12.6 µM (inactive) | 3.71 µM (inactive)
Cc1ccc(NC(=O)C(=O)C(C(=O)/C=C/c2ccccc2)C2OC(=O)c3ccccc32)c(C)c1 (stereo unspecified) | – | > 100 µM (inactive) | > 100 µM (inactive) | > 100 µM (inactive) | > 100 µM (inactive) | > 100 µM (inactive) | > 100 µM | > 100 µM (inactive) | 85.7 µM (inactive) | > 100 µM (inactive) | > 100 µM (inactive) | – | > 100 µM (inactive) | > 100 µM (inactive) | > 100 µM (inactive) | > 100 µM (inactive) | > 100 µM (inactive) | > 100 µM (inactive) | 45.4 µM (inactive)
O=[N+]([O-])c1ccc(C2CC(c3ccccc3Cl)=Nc3ccccc3S2)cc1 (stereo unspecified) | – | 4.46 µM (inactive) | 15.8 µM (inactive) | 2.3 µM (inactive) | 14.5 µM (inactive) | 23.9 µM (inactive) | 5.35 µM | 6 µM (inactive) | 1.75 µM (inactive) | 3.08 µM (inactive) | 12.1 µM (inactive) | – | 6.15 µM (inactive) | 8.79 µM (inactive) | 6.65 µM (inactive) | 1.78 µM (inactive) | 18.8 µM (inactive) | 5.27 µM (inactive) | 2.01 µM (inactive)
CC1/C=C/[C@@]2(C)CCC(C(C)(C)O)C2C(O)C[C@](C)(O)/C=C/C1 (stereo partly specified) | – | > 100 µM (inactive) | > 100 µM (inactive) | > 100 µM (inactive) | > 100 µM (inactive) | > 100 µM (inactive) | > 100 µM | > 100 µM (inactive) | 65.9 µM (inactive) | > 100 µM (inactive) | > 100 µM (inactive) | – | > 100 µM (inactive) | > 100 µM (inactive) | > 100 µM (inactive) | > 100 µM (inactive) | > 100 µM (inactive) | > 100 µM (inactive) | 66.5 µM (inactive)
COc1cc2c(c(OC)c1OC)-c1ccc(SC)c(=O)cc1[C@@H](NCc1cccc([N+](=O)[O-])c1)CC2 | – | < 0.01 µM (active) | < 0.01 µM (active) | < 0.01 µM (active) | < 0.01 µM (active) | < 0.01 µM (active) | – | < 0.01 µM (active) | < 0.01 µM (active) | < 0.01 µM (active) | < 0.01 µM (active) | – | < 0.01 µM (active) | < 0.01 µM (active) | < 0.01 µM (active) | < 0.01 µM (active) | < 0.01 µM (active) | < 0.01 µM (active) | > 100 µM (inactive)
